The structures appear in SMILES notation.

The values below come from ChEMBL document CHEMBL3039007, “Structure-based identification of OATP1B1/3 inhibitors” (Mol Pharmacol, 2013).

The target in series [1] is T1, Solute carrier organic anion transporter family member 1B1 (Homo sapiens, UniProt Q9Y6L6).
T1 sequence (Q9Y6L6 whole entry): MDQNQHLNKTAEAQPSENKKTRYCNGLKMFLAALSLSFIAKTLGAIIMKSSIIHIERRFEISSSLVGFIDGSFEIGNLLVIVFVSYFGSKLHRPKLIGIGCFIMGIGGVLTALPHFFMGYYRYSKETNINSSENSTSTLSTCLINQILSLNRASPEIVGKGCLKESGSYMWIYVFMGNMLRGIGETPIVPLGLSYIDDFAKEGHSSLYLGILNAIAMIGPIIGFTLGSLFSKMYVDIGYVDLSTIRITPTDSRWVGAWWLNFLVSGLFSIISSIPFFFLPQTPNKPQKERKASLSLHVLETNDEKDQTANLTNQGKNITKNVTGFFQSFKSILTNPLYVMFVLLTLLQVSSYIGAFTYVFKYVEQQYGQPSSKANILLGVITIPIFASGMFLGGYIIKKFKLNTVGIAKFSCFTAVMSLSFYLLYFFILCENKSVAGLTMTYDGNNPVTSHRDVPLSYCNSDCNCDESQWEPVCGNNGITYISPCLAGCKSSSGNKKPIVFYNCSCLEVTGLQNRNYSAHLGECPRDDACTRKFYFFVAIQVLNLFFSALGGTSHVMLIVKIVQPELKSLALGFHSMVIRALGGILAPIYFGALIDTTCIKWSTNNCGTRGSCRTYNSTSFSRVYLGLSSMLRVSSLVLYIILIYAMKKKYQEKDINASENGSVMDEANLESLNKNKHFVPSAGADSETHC
The conditions noted are these: chinese hamster, cho, 10 µM.

Series [2] concerns the target T1, Solute carrier organic anion transporter family member 1B1.
The target is the same in series [3]. The source holds these as a separate data set.
The target in series [4] is T2, Solute carrier organic anion transporter family member 1B3 (Homo sapiens, UniProt Q9NPD5).
T2 sequence (Q9NPD5 whole entry): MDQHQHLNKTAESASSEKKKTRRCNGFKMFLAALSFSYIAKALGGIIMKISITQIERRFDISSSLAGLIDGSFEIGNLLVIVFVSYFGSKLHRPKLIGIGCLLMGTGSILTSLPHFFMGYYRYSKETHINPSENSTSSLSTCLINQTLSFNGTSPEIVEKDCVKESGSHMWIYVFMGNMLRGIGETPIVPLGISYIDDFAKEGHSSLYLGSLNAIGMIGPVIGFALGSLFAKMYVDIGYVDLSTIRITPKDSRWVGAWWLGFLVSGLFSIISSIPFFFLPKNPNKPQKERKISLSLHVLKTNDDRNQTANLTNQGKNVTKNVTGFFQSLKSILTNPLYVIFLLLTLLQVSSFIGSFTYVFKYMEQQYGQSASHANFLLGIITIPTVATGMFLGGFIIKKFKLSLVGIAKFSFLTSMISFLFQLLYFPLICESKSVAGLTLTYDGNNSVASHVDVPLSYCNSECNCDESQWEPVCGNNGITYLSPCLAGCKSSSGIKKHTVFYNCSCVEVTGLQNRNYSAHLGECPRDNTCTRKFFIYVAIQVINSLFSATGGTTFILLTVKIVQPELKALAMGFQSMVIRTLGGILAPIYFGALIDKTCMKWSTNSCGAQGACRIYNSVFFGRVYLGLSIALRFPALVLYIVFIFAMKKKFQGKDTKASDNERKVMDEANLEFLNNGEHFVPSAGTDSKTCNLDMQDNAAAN

The target of series [5] is T2, Solute carrier organic anion transporter family member 1B3. This is another data set of the same source.
The target is the same in series [6]. The conditions noted are these: chinese hamster, cho, 10 µM.

As a reminder, the residual activity is what remains of the control signal, in per cent. High values mean a small loss of activity, low ones a large loss of activity. Broadly, the Ki is a dissociation constant, usually derived from enzyme kinetics or from competition with a known ligand. Read a high Ki as weaker binding. The term IC50 denotes the concentration that inhibits the measured activity by half. Read a low IC50 as greater potency in that assay. `COC(=O)C[C@H]1C2(C)CC34OC5(C)O[C@@]6([C@H](OC)C(OC(=O)C(C)C)[C@]7(C)C(/C(=C(/OC)C(C)C)C(=O)O[C@H]7c7ccoc7)[C@@]6(O5)[C@H](OC)[C@@]3(OC)C2OC(C)=O)[C@]14C` (stereo partly drawn) [CHUKRASIN METHYL ETHER]: the results for the residual activity in series [1] and in series [6] were 6.829% and 3.762%, respectively. For the same molecule, the Ki in series [2] turned out to be 420 nM; in series [4], 560 nM. In addition, the values for the IC50 in series [3] and in series [5] were 759 nM and 724 nM, respectively.

In the case of `CC(C)CCCC1(C)C=Cc2c(O)c3c(c(CCC(C)C)c2O1)OC12C(CC4CC1C(C)(C)OC2(CCC(C)C(=O)O)C4O)C3=O` (stereo not drawn) [DECAHYDROGAMBOGIC ACID], the results for the residual activity in series [1] and in series [6] were 12.82% and 18.17%, respectively. For the same molecule, the Ki in series [2] worked out at 620 nM; in series [4], 1770 nM. Besides, the half-inhibitory concentration (IC50) in series [3] is 1150 nM; in series [5], 2290 nM.

Take `Cc1onc(-c2c(Cl)cccc2Cl)c1C(=O)N[C@@H]1C(=O)N2[C@@H]1SC(C)(C)[C@@H]2C(=O)[O-].O.[Na+]` [DICLOXACILLIN SODIUM]: the residual activity in series [1] is 11.45%; in series [6] it was 9.757%. The inhibition constant Ki worked out at 370 nM in series [2] and 1550 nM in series [4]. For the same molecule, the values for the IC50 in series [3] and in series [5] were 676 nM and 2000 nM, respectively.

Turning to `CC(C)=CCCC1(C)C=Cc2c(O)c3c(c(CC=C(C)C)c2O1)OC12C(=CC4CC1C(C)(C)OC2(C/C=C(/C)C(=O)O)C4O)C3=O` (stereo not drawn) [DIHYDROGAMBOGIC ACID], the residual activity in series [1] was 14.23%; in series [6], 17.26%. The Ki in series [2] was 1230 nM; in series [4], 2240 nM. Besides, the IC50 in series [3] was 2240 nM; in series [5], 2880 nM.

Consider `COC(=O)/C(C)=C\CC12OC(C)(C)C3CC(C=C4C(=O)c5c(OC)c6c(c(CC=C(C)C)c5OC431)OC(C)(CCC=C(C)C)C=C6)C2=O` (stereo not drawn) [DIMETHYL GAMBOGATE], for which the residual activity is 23.19% in series [1] and 62.06% in series [6]. Besides, the Ki in series [2] turned out to be 1260 nM; in series [4] it was 3940 nM. Moreover, the IC50 in series [3] was 2290 nM; in series [5], 5130 nM.

Regarding `O=C(O[C@@H]1Cc2c(O)cc(O)cc2O[C@@H]1c1ccc(O)c(O)c1)c1cc(O)c(O)c(O)c1` [EPICATECHIN GALLATE], the figures for the residual activity in series [1] and in series [6] were 46.4% and 25.25%, respectively. Moreover, the Ki in series [2] amounted to 2070 nM; in series [4] it was 3460 nM. In addition, the IC50 in series [3] is 3800 nM; in series [5], 4470 nM.

As to `CCC(=O)O[C@H]1[C@H](O[C@@H]2[C@@H](C)[C@H](O[C@H]3C[C@@](C)(OC)[C@@H](O)[C@H](C)O3)[C@@H](C)C(=O)O[C@H](CC)[C@@](C)(O)[C@H](O)[C@@H](C)C(=O)[C@H](C)C[C@@]2(C)O)O[C@H](C)C[C@@H]1N(C)C.CCCCCCCCCCCCOS(=O)(=O)O` [ERYTHROMYCIN ESTOLATE], the figures for the residual activity in series [1] and in series [6] were 6.903% and 7.433%, respectively. The figures for the Ki in series [2] and in series [4] were 2410 nM and 2350 nM, respectively. In addition, the 50% inhibitory concentration (IC50) in series [3] is 4370 nM; in series [5] it was 3090 nM.

`CCOC(=O)CCC(=O)O[C@H]1[C@H](O[C@@H]2[C@@H](C)[C@H](O[C@H]3C[C@@](C)(OC)[C@@H](O)[C@H](C)O3)[C@@H](C)C(=O)O[C@H](CC)[C@@](C)(O)[C@H](O)[C@@H](C)C(=O)[C@H](C)C[C@@]2(C)O)O[C@H](C)C[C@@H]1N(C)C` [ERYTHROMYCIN ETHYLSUCCINATE]: the residual activity in series [1] is given as 3.592%; in series [6] it was 30.5%. For the same molecule, the Ki amounted to 1670 nM in series [2] and 1610 nM in series [4]. For the same molecule, the half-inhibitory concentration (IC50) in series [3] is 3020 nM; in series [5] it was 2090 nM.

For `COC(=O)c1c(OC)cc2c(c1C)Oc1c(Cl)c(O)c(Cl)c(C)c1C(=O)O2` [GANGALEOIDIN], the residual activity is on record as 4.093% in series [1] and 15.01% in series [6]. The values for the inhibition constant Ki in series [2] and in series [4] were 60 nM and 2020 nM, respectively. The IC50 in series [3] is 102 nM; in series [5], 2630 nM.

Turning to `CC(C)=CCCC1(C)C=Cc2c(O)c3c(c(CC=C(C)C)c2O1)OC12C(=CCCC1C(C)(C)O[C@@]2(C/C=C(\C)C(=O)O)C(=O)O)C3=O` (stereo partly drawn) [GARCINOLIC ACID], the residual activity stood at 30.6% in series [1] and 3.626% in series [6]. The inhibitory constant (Ki) in series [2] came to 650 nM; in series [4], 1730 nM. Further, the concentration for half-maximal inhibition (IC50) is 1170 nM in series [3] and 2240 nM in series [5].

On to `O=c1c(-c2ccc(O)cc2)coc2cc(O)cc(O)c12` [GENISTEIN], for which the residual activity was found to be 95.56% in series [1] and 39.06% in series [6]. Further, the Ki amounted to 5000 nM in series [2] and 2960 nM in series [4]. Further, the IC50 in series [3] is 9120 nM; in series [5], 3890 nM.

Consider `CC(=O)OC/C=C(C)/C=C/C=C(C)/C=C/C1=C(C)CCCC1(C)C` [GILRETINOL ACETATE], for which the residual activity in series [1] is reported as 19.44%; in series [6], 23.53%. The Ki came to 1220 nM in series [2] and 3890 nM in series [4]. In addition, the IC50 is 2240 nM in series [3] and 5010 nM in series [5].

On to `CC1(C)CC[C@]2(C(=O)O)CC[C@]3(C)C(=CC[C@@H]4[C@@]5(C)CC[C@H](O)[C@@](C)(CO)[C@@H]5CC[C@]43C)[C@@H]2C1` [HEDERAGENIN], for which the residual activity in series [1] came out at 40.18%; in series [6], 18.59%. Besides, the Ki was determined as 2110 nM in series [2] and 680 nM in series [4]. Also, the IC50 in series [3] was 3800 nM; in series [5] it was 891 nM.

`O=C(O)c1cc2ccccc2c(Cc2c(O)c(C(=O)O)cc3ccccc23)c1O.OCCOCCN1CCN(C(c2ccccc2)c2ccc(Cl)cc2)CC1` [HYDROXYZINE PAMOATE]: the residual activity was 12.16% in series [1] and 13.57% in series [6]. In addition, the inhibition constant Ki in series [2] came out at 450 nM; in series [4], 940 nM. The half-inhibitory concentration (IC50) in series [3] was 813 nM; in series [5], 1230 nM.

On to `CC[C@@H](C(=O)[C@@H](C)[C@@H](O)[C@H](C)CCc1ccc(C)c(O)c1C(=O)[O-])[C@H]1O[C@](CC)([C@H]2CC[C@](O)(CC)[C@H](C)O2)C[C@@H]1C.[Na+]` [LASALOCID A SODIUM], for which the residual activity is 10.29% in series [1] and 6.678% in series [6]. Moreover, the Ki in series [2] was determined as 260 nM; in series [4] it was 590 nM. For the same molecule, the IC50 in series [3] is 479 nM; in series [5], 776 nM.

As to `COC(=O)c1c(C)c2c(c(C)c1O)OC(=O)c1c(C)c(Cl)c(O)c(Cl)c1O2` [LEOIDIN], the values for the residual activity in series [1] and in series [6] were 7.804% and 14.63%, respectively. The inhibitory constant (Ki) was found to be 80 nM in series [2] and 1840 nM in series [4]. Moreover, the IC50 is 145 nM in series [3] and 2400 nM in series [5].

Take `CCCCCc1c2c(cc(O)c1C(=O)O)OC(=O)c1c(cc(OC)cc1C(=O)CCCC)O2` [LOBARIC ACID]: the residual activity in series [1] came out at 18.31%; in series [6], 7.572%. The Ki in series [2] is 400 nM; in series [4] it was 1250 nM. For the same molecule, the figures for the 50% inhibitory concentration (IC50) in series [3] and in series [5] were 724 nM and 1620 nM, respectively.

For the molecule `C=C1[C@@H]2CC[C@@]3(C)[C@H](c4ccoc4)OC(=O)C[C@]13O[C@H]1CC(=O)C(C)(C)[C@H](C(OC(C)=O)C(=O)OC)[C@]12C` (stereo partly drawn) [METHYL 6-ACETOXYANGOLENSATE], the results for the residual activity in series [1] and in series [6] were 11.95% and 34.99%, respectively. Besides, the Ki came out at 800 nM in series [2] and 2920 nM in series [4]. Also, the half-inhibitory concentration (IC50) in series [3] was 1450 nM; in series [5] it was 3800 nM.
